{
  "source": "patent US20030186946A1",
  "about": "“Suppression of cytotoxic protein conformers” (priority 2002, published 2003)",
  "molecular_target": "T1, human amylin (Homo sapiens, UniProt P10997)",
  "T1 sequence (P10997 34-70 limits assumed)": "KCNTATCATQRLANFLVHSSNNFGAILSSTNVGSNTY",
  "assay": "Circular dichroism assay of amylin conformation",
  "type": "biochemical",
  "parameters": "Amylin is a 37-residue; C-terminally amidated peptide having a disulfide bridge between the cysteines at residues 2 and 7; purchased Bachem Calif; (Torrance, Calif.); host or cells: chemical synthesis",
  "details": "for conformation of human amylin (circular dichroism): approximately 4 μM human amylin, 4% HFIP (FIG. 9E)",
  "procedure": "Preparation of monomeric human amylin. Human amylin (batch 0551805) was obtained from Bachem (Torrence, Calif.). Stock solutions of amylin were prepared as described by Padrick and Miranker, 2002. Human amylin was solubilised in 6M guanidine HCL/50 mM potassium phosphate, pH 6.0, and loaded onto a C18 reversed-phase spin column (Harvard Biosciences). The column was then washed sequentially with 10% Acetonitrile, 0.2% trifluoroacetic acid and water. Monomeric amylin was eluted in 100% HFIP (hexafluoroisopropanol). This stock solution of amylin was then used for all Circular Dichroism experiments.\nCircular Dichroism Assay. Circular dichroism spectra were measured on a Pi-Star 180 spectrometer (Applied Photophysics, Leatherhead, UK). Measurements were carried out in either 100% HFIP or 100 mM potassium chloride/50 mM potassium phosphate buffer (pH 7.4) and 2.5% HFIP at 25° C. A stock solution of monomeric human amylin was diluted into buffer to a final concentration of 2.5% HFIP and approximately 5 μM amylin to initiate amylin fibril formation. Spectra were collected at 1 nm intervals with a sample period of 25 μs and adaptive sampling of ±0.01 mdeg. Measurements were recorded immediately following addition of the human amylin stock solution to phosphate buffer in the presence or absence of Congo red or amaranth.\nHuman amylin (100 μg) was purified on a C18 spin column to give a stock solution in 100% HFIP as described in the methods. A spectrum of this stock solution was collected at 1 nm intervals in a 0.1 cm path length quartz cell (FIG. 9B). The stock solution of monomeric amylin in 100% HFIP was diluted to 2.5% HFIP in 100 mM potassium chloride/50 mM potassium phosphate buffer (pH 7.4). Human amylin concentration was approximately 5 μM. A spectrum was collected at 1 nm intervals in a 0.5 cm path length quartz cell in the absence (FIG. 9C) or presence of 20-fold molar excess of Congo red over human amylin (FIG. 9D). The stock solution of monomeric amylin in 100% HFIP was diluted to 4% HFIP in 100 mM potassium chloride/50 mM potassium phosphate buffer (pH 7.4) containing decreasing concentrations of Congo red as indicated in the Figure. Human amylin concentration was approximately 4 μM. Spectra were collected at 1 nm intervals in a 0.1 cm path length quartz cell (FIG. 9E). The stock solution of monomeric amylin in 100% HFIP was diluted to 4% HFIP in 100 mM potassium chloride/50 mM potassium phosphate buffer (pH 7.4) containing 200 μM Amaranth. Human amylin concentration was approximately 4 μM. Spectra were collected at 1 nm intervals in a 0.1 cm path length quartz cell (FIG. 9F).",
  "data": [
    {"substance": "Congo red", "values": [
      {"measurement": "conformation of human amylin (circular dichroism)", "setting": "0.8 μM Congo red after 1 hr", "result": "β-sheet"},
      {"measurement": "conformation of human amylin (circular dichroism)", "setting": "0.8 μM Congo red", "result": "random coil"},
      {"measurement": "conformation of human amylin (circular dichroism)", "setting": "4 μM Congo red", "result": "α-helix"},
      {"measurement": "conformation of human amylin (circular dichroism)", "setting": "200 μM Congo red", "result": "α-helix"},
      {"measurement": "effect on β-sheet conformer formation of human amylin (circular dichroism)", "setting": "20-fold molar excess of Congo red, approximately 5 μM human amylin, 2.5% HFIP, pH 7.4 (FIG. 9D)", "result": "prevents formation of β-sheet conformers"},
      {"measurement": "time amylin remains stable in α-helical structure", "setting": "excess of Congo red", "result": "at least 24 hr"}
    ]}
  ]
}
